This experiment concerns Human adenovirus 5. In words: Antiviral activity against Human adenovirus 5 infected in HEK293beta5 cells coexpressing GFP assessed as inhibition of plaque formation at 10 uM incubated for 7 days relative to control. Format: functional. The following applies: Human mastadenovirus C, 168 h.

The structures appear in SMILES notation.

As usually defined, the inhibition is the percentage by which the read-out fell short of the control.

`CC1CN(C(=O)c2cc3ccccc3o2)CC(C)N1C(=O)Nc1ccccc1[N+](=O)[O-]` (stereo not drawn): the inhibition at 10 µM was found to be 72.2%. On to `CC1CN(C(=O)c2cc3ccccc3o2)CC(C)N1C(=O)Nc1cc(C(F)(F)F)ccc1Cl` (stereo not drawn), for which the inhibition at 10 µM is 0%. In the case of `COc1ccc(NC(=S)N2CCN(C(=O)OC(C)(C)C)CC2C)cc1` (stereo not drawn), the inhibition at 10 µM is 36.5%. The value for `O=C(Nc1cc(C(F)(F)F)ccc1Cl)N1CCN(C(=O)Nc2cc(C(F)(F)F)ccc2Cl)CC1` was 33.9%; that for `O=C(CC1CCCCC1)N1CCN(C(=S)Nc2ccc(F)cc2)C(c2ccccc2)C1` (stereo not drawn) was 5%; that for `CC1CN(C(=O)c2cc3ccccc3o2)CC(C)N1C(=O)Nc1ccc(C#N)cc1` (stereo not drawn) was 10%. Consider `Cc1ccc(NC(=S)N2CCN(C(=O)CC3CCCCC3)CC2c2ccccc2)cc1` (stereo not drawn), for which the inhibition at 10 µM was found to be 15%. Consider `CC1CN(C(=O)CC(C)(C)C)CCN1C(=S)Nc1ccc([N+](=O)[O-])cc1` (stereo not drawn), for which the inhibition at 10 µM was determined as 76.2%.

`CC1CN(C(=O)CC(C)(C)C)CCN1C(=S)Nc1ccc(Cl)cc1` (stereo not drawn): the inhibition at 10 µM was 61.6%. For `CC1CN(C(=O)c2cc3ccccc3o2)CC(C)N1C(=O)Nc1ccc(Cl)c(C(F)(F)F)c1` (stereo not drawn), the inhibition at 10 µM was 0%. `Cc1ccc(NC(=S)N2CCN(C(=O)OC(C)(C)C)CC2C)cc1` (stereo not drawn): the inhibition at 10 µM stood at 49.1%. Then `CC1CN(C(=O)CC(C)(C)C)CCN1C(=S)Nc1cc(C(F)(F)F)cc(C(F)(F)F)c1` (stereo not drawn), with 4.81%; and `CC1CN(C(=O)CC(C)(C)C)CCN1C(=S)Nc1ccc(C(F)(F)F)cc1` (stereo not drawn), with 36.3%; and `CC1CN(C(=O)OC(C)(C)C)CCN1C(=S)Nc1ccc(C(F)(F)F)cc1` (stereo not drawn), with 73.4%.

For `CC1CN(C(=O)CC(C)(C)C)CCN1C(=S)Nc1ccc(F)cc1` (stereo not drawn), the inhibition at 10 µM stood at 7.5%. Then `O=C(Cc1ccccc1)N1CCN(C(=S)Nc2ccc([N+](=O)[O-])cc2)C(c2ccccc2)C1` (stereo not drawn), with 5.5%; and `O=C(c1cc2ccccc2o1)N1CCN(C(=O)c2cc3ccccc3o2)CC1`, with 51.5%.

As for `Cc1ccc(NC(=O)N2C(C)CN(C(=O)c3cc4ccccc4o3)CC2C)cc1` (stereo not drawn), the inhibition at 10 µM came out at 0%. Regarding `O=C(Nc1ccccc1[N+](=O)[O-])N1CCN(C(=O)c2cc3ccccc3o2)CC1`, the inhibition at 10 µM worked out at 41.5%. On to `CC1CN(C(=O)OC(C)(C)C)CCN1C(=S)Nc1ccc(Cl)cc1` (stereo not drawn), for which the inhibition at 10 µM was 73.4%. Then `CC1CN(C(=O)OC(C)(C)C)CCN1C(=S)Nc1cc(C(F)(F)F)cc(C(F)(F)F)c1` (stereo not drawn), with 11.1%; and `CC1CN(C(=O)c2cc3ccccc3o2)CC(C)N1C(=O)Nc1ccc([N+](=O)[O-])cc1` (stereo not drawn), with 12.2%; and `CC(C)(C)OC(=O)N1CCN(C(=S)Nc2ccc(F)cc2)C(c2ccccc2)C1` (stereo not drawn), with 27.5%. `CC1CN(C(=O)Cc2ccccc2)CCN1C(=S)Nc1ccc(C(F)(F)F)cc1` (stereo not drawn): the inhibition at 10 µM amounted to 73.4%. On to `COc1ccc(NC(=S)N2CCN(C(=O)CC(C)(C)C)CC2C)cc1` (stereo not drawn), for which the inhibition at 10 µM is 58.1%. Turning to `CC(C)(C)OC(=O)N1CCN(C(=O)Nc2ccccc2[N+](=O)[O-])CC1`, the inhibition at 10 µM stood at 15%. `CC1CN(C(=O)OC(C)(C)C)CCN1C(=S)Nc1ccc([N+](=O)[O-])cc1` (stereo not drawn): the inhibition at 10 µM came to 100%. The value for `O=C(c1cc2ccccc2o1)N1CCN(C(=O)c2cc3ccccc3o2)C(c2ccccc2)C1` (stereo not drawn) was 19.4%; that for `N#Cc1ccc(NC(=S)N2CCN(C(=O)Cc3ccccc3)CC2c2ccccc2)cc1` (stereo not drawn) was 64%. With `CC1CN(C(=O)CC(C)(C)C)CCN1C(=S)Nc1ccc(C#N)cc1` (stereo not drawn), the inhibition at 10 µM was determined as 51%. With `COc1ccc(NC(=S)N2CCN(C(=O)CC3CCCCC3)CC2C)cc1` (stereo not drawn), the inhibition at 10 µM was determined as 25.5%. As for `O=C(Nc1ccc([N+](=O)[O-])cc1)N1CCN(C(=O)c2cc3ccccc3o2)CC1`, the inhibition at 10 µM came to 0%.

For the molecule `Cc1ccc(NC(=S)N2CCN(C(=O)CC(C)(C)C)CC2C)cc1` (stereo not drawn), the inhibition at 10 µM turned out to be 76.8%.

(Values after ChEMBL document CHEMBL4312024, “Optimization of piperazine-derived ureas privileged structures for effective antiadenovirus agents” (Eur J Med Chem, 2020).)
